# Reference: patent US4241064A, “9H-Pyrido[3,4-b]indole derivatives” (Nippon Shinyaku Co. Ltd., priority 1978, dated 1980)
# Where two headings read alike, the source gives them in different places.
# Experiments:
# [1] = target: xanthine-oxidase (Bos taurus, UniProt P80457); test: xanthine-oxidase inhibitory activity (pre-incubation 5 min, then 10 μM xanthine; Kalker); assay type: biochemical; conditions: Table I; phosphate buffer pH 7.5, 10 μM xanthine; read-out: IC50 (xanthine-oxidase inhibition) (converted)
# Sequence of xanthine-oxidase (P80457 whole entry): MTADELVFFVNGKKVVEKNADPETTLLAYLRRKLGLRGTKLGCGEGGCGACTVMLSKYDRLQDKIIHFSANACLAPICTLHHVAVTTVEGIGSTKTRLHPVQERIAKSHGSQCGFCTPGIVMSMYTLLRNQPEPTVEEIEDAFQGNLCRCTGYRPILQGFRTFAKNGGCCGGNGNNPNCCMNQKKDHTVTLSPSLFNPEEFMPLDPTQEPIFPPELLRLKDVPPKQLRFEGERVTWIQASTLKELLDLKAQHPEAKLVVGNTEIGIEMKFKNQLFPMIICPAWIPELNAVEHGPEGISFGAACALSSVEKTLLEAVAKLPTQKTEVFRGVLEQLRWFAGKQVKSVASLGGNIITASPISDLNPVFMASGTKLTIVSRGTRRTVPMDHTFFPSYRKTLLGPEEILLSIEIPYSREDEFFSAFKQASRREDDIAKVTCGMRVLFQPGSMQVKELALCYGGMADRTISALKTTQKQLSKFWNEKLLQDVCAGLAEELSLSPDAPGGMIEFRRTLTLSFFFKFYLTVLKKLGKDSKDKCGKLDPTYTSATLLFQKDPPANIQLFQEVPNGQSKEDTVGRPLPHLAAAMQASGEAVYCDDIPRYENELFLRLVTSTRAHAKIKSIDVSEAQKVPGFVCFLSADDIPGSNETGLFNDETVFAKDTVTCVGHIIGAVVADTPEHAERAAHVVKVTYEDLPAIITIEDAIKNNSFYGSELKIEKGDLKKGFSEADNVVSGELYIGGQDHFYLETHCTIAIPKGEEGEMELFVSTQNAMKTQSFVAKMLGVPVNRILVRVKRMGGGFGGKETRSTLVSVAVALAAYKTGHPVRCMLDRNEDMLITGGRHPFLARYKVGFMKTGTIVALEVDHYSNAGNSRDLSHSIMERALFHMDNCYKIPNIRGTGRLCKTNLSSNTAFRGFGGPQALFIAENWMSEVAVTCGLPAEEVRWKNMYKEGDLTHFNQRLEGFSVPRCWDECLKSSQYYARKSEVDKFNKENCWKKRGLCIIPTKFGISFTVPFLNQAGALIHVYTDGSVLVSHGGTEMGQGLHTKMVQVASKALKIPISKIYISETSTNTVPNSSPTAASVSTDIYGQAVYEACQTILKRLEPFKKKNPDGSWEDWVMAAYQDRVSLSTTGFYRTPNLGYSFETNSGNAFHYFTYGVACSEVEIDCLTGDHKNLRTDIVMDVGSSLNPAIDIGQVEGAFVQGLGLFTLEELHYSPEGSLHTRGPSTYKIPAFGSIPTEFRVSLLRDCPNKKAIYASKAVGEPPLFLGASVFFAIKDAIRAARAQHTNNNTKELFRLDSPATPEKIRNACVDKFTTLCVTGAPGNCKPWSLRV
# Excerpt: The foregoing compounds have the property of inhibiting the enzyme xanthine-oxidase. As is known, xanthine-oxidase inhibitors improve hyperuricacidemia by suppressing the formation of uric acid and, as such, find use as therapeutic and prophylactic agents in the treatment of gout, calculus in the urinary organ, tissue degeneration of the circulatory system, and the like. The xanthine-oxidase inhibitory activity is expressed in terms of the concentration of the agent at which a 50% inhibition of xanthine-oxidase activity is observed (IC50). This can be readily measured pre-incubation of test specimens at varying concentrations in phosphate buffer (pH 7.5) for 5 minutes, then adding 10 μM of xanthine, measuring the enzyme activity (Kalker), and comparing the assay result with the activity of a control to determine the percent inhibition. (The IC50 value being derived from a plot of concentration versus percent inhibition).
# According to the present invention, commercial picrasma wood, dry pulverized picrasma wood or, preferably, the dry pulverized powder of its heart wood, is extracted with a polar organic solvent such as water or methanol and the extract is then concentrated to yield a whole picrasma extract. This extract is then fractionated as for example by Sephadex LH or silica gel chromatography. The fractions are assayed for xanthine-oxidase inhibitory activity and the active fraction this then purified as by recrystallization.
# [2] = test system: Ehrlich ascites cells; test: survival of mice transplanted with Ehrlich ascites cells, i.p. dosing for 7 consecutive days (potentiation of mitomycin C); assay type: in vivo, ddY mice; conditions: for Survival Rate (%): i.p. 7 days, compound 1 50 mg/kg/day, mitomycin C 0.5 mg/kg/day
# Method: (§1) Thus, ddY mice (male, body weights ca 18 g) were reared for a week and 1×10^6 Ehrlich ascites cells/animal were intraperitoneally transplanted. After 24 hours, mitomycin C or/and compound 1 were administered intraperitoneally for 7 consecutive days.
# [3] = test system: Ehrlich ascites cells; conditions: single i.p. at day 6, mitomycin C 1 mg/kg, compound 1 50 mg/kg
# Method: as §1
compound,measurement,setting,value
"O=Cc1ncc(O)c2c1[nH]c1ccccc12 [Compound 1, 1-formyl-4-hydroxy-9H-pyrido[3,4-b]indole]",IC50,[1],0.00306 µM
same,Survival Rate (%),[2]; Day 16,100%
same,Survival Rate (%),[2]; Day 17,90%
same,Survival Rate (%),[2]; Day 18,80%
same,Survival Rate (%),[2]; Day 19,80%
same,Survival Rate (%),[2]; Day 20,70%
same,Survival Rate (%),[2]; Day 21,70%
same,Survival Rate (%),[2]; Day 22,40%
same,Survival Rate (%),[2]; Day 23,30%
same,Survival Rate (%),[2]; Day 24,10%
same,Survival Rate (%),[2]; Day 25,10%
same,Survival Rate (%),[2]; Day 26,10%
same,potentiation of the antitumor activity of mitomycin C and similar antibiotics,"[2]; result in words, conventional laboratory models",significant potentiation of the antitumor activity of mitomycin C
"OCc1nccc2c1[nH]c1ccccc12 [H H CH2 OH, 1-Hydroxymethyl-9H-Pyrido[3,4-b]Indole]",IC50,[1],21.7 µM
O=Cc1nccc2c1[nH]c1ccccc12 [H H CHO],IC50,[1],4.08 µM
"COC(=O)c1nccc2c1[nH]c1ccccc12 [H H COOCH3, 1-carbomethoxy-9H-pyrido[3,4-b]indole]",IC50,[1],177 µM
"O=Cc1nc(O)cc2c1[nH]c1ccccc12 [H OH CHO, 1-Formyl-3-Hydroxy-9H-Pyrido[3,4-b]Indole]",IC50,[1],1.79 µM
"CO[C@@]12[C@H](COC(N)=O)C3=C(C(=O)C(C)=C(N)C3=O)N1C[C@@H]1N[C@@H]12 [Mitomycin, mitomycin C]",Survival Rate (%),[2]; Day 16,100%
same,Survival Rate (%),[2]; Day 17,100%
same,Survival Rate (%),[2]; Day 18,100%
same,Survival Rate (%),[2]; Day 19,100%
same,Survival Rate (%),[2]; Day 20,100%
same,Survival Rate (%),[2]; Day 21,100%
same,Survival Rate (%),[2]; Day 22,90%
same,Survival Rate (%),[2]; Day 23,90%
same,Survival Rate (%),[2]; Day 24,90%
same,Survival Rate (%),[2]; Day 25,90%
same,Survival Rate (%),[2]; Day 26,90%
same,Survival Rate (%),[2]; Day 27,90%
same,Survival Rate (%),[2]; Day 28,80%
same,Survival Rate (%),[2]; Day 29,70%
same,Survival Rate (%),[2]; Day 30,70%
same,Survival Rate (%),[2]; Day 33,70%
same,Survival Rate (%),[2]; Day 34,60%
same,Survival Rate (%),[2]; Day 38,60%
same,Survival Rate (%),[2]; Day 39,50%
same,Survival Rate (%),[2]; Day 48,50%
same,Survival Rate (%),[2]; Day 49,40%
same,Survival Rate (%),[2]; Day 52,40%
same,Survival Rate (%),[2]; Day 53,30%
same,Survival Rate (%),[2]; Day 56,30%
same,Survival Rate (%),[2]; Day 57,20%
same,Survival Rate (%),[2]; Day 58,20%
same,Survival Rate (%),[2]; Day 59,20%
same,Survival Rate (%),[2]; Day 60 after transplantation,20%
same,No. Surviving,[3]; Day 10,7
same,No. Surviving,[3]; Day 11,7
same,No. Surviving,[3]; Day 12,7
same,No. Surviving,[3]; Day 13,7
same,No. Surviving,[3]; Day 14,7
same,No. Surviving,[3]; Day 15,7
same,No. Surviving,[3]; Day 16,7
same,No. Surviving,[3]; Day 17,7
same,No. Surviving,[3]; Day 18,5
same,No. Surviving,[3]; Day 19,5
same,No. Surviving,[3]; Day 20,4
same,No. Surviving,[3]; Day 21,4
same,No. Surviving,[3]; Day 22,4
same,No. Surviving,[3]; Day 23,2
same,No. Surviving,[3]; Day 24,2
same,No. Surviving,[3]; Day 25,1
same,No. Surviving,[3]; Day 26,1
same,No. Surviving,[3]; Day 27,1
same,No. Surviving,[3]; Day 28,1
"CC(=O)Oc1cnc(C=O)c2[nH]c3ccccc3c12 [OCOCH3 H CHO, 1-Formyl-4-Acetoxy-9H-Pyrido[3,4-b]Indole]",IC50,[1],0.00669 µM
"OCc1ncc(O)c2c1[nH]c1ccccc12 [OH H CH2 OH, 1-Hydroxymethyl-4-Hydroxy-9H-pyrido[3,4-b]Indole]",IC50,[1],0.336 µM
"COC(=O)c1ncc(O)c2c1[nH]c1ccccc12 [OH H COOCH3, 1-Carbomethoxy-4-Hydroxy-9H-Pyrido[3,4-b]Indole]",IC50,[1],78.4 µM
"O=C(O)c1ncc(O)c2c1[nH]c1ccccc12 [OH H COOH, 1-Carboxy-4-Hydroxy-9H-Pyrido[3,4-b]Indole]",IC50,[1],1.1 µM
